Measurements taken from the supplement of paper PMC4858399.
Structures can show the parent of a compound that is named as a salt.

Columns and labels:
Conditions in all cases: exposure time 48 h
[1] = tested on: Caenorhabditis elegans N2; assay: AC50 for larval growth inhibition (Hill fit); higher = less potent
Outline: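 C. elegans N2 L1 larvae, synchronised and plated at 50 per well in 96-well plates, were exposed for 48 h at 20°C to 0.5–200 µM chemical in K-medium with killed OP50 and 1% DMSO. Log-transformed extinction from a COPAS Biosort served as worm size, averaged per well. Wells containing at least 10 worms entered the fit. A constrained Hill fit by weighted genetic-algorithm regression yielded the AC50, censored when out of range.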

[2] = tested on: Caenorhabditis elegans N2; assay: lowest effective concentration for larval growth inhibition (size below effect threshold); higher = less potent
Outline: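 L1 larvae of C. elegans N2 (50 per 96-well) were grown in K-medium with killed bacteria and 1% DMSO, with the chemical at 0.5, 1, 5, 10, 50, 100 or 200 µM, for 48 h at 20°C. Per-worm extinction from the Biosort stood for size and was log-transformed into well means. For each chemical, the lowest effective concentration is the first dose where plate-adjusted mean size falls under the threshold and stays under it at the higher doses, using a threshold of 5.665.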

[3] = tested on: Caenorhabditis elegans N2; assay: mean nematode size ln(EXT) after 48 h, plate-adjusted (DMSO control set to 6) (ln(EXT), control-adjusted); higher = larger nematodes / less growth inhibition
Outline: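 In K-medium with killed OP50, 1% DMSO and 0.5–200 µM chemical, synchronised N2 L1 larvae of C. elegans (50 per well) grew for 48 h at 20°C. Extinction was read for every worm on the Biosort, with debris removed by a growth model. Natural-log values averaged per well gave mean size, which was corrected per plate by subtracting the vehicle control mean and adding 6.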

Structure (SMILES)	AC50 for larval growth inhibition [1] [µM]	lowest effective concentration [2] [µM]	mean nematode size ln(EXT) (ln) ([3]; 0.5 µM)	mean nematode size ln(EXT) (ln) ([3]; 1 µM)	mean nematode size ln(EXT) (ln) ([3]; 5 µM)	mean nematode size ln(EXT) (ln) ([3]; 10 µM)	mean nematode size ln(EXT) (ln) ([3]; 50 µM)	mean nematode size ln(EXT) (ln) ([3]; 100 µM)	mean nematode size ln(EXT) (ln) ([3]; 200 µM)
O=C(OC[C@H]1O[C@@H](OC(=O)c2cc(O)c(O)c(OC(=O)c3cc(O)c(O)c(O)c3)c2)[C@H](OC(=O)c2cc(O)c(O)c(OC(=O)c3cc(O)c(O)c(O)c3)c2)[C@@H](OC(=O)c2cc(O)c(O)c(OC(=O)c3cc(O)c(O)c(O)c3)c2)[C@@H]1OC(=O)c1cc(O)c(O)c(OC(=O)c2cc(O)c(O)c(O)c2)c1)c1cc(O)c(O)c(OC(=O)c2cc(O)c(O)c(O)c2)c1 [Tannic acid]	> 200	200	5.95	5.98	5.96	5.92	5.86	5.68	5.34
CCCCCOC(=O)COc1cc(N2C(=O)C3=C(CCCC3)C2=O)c(F)cc1Cl [Flumiclorac-pentyl]	> 200	100	5.98	6.04	6.02	5.91	5.69	5.6	4.54
Nc1cc2c3c(c1)C(c1ccccc1)=N[C@@H](NC(=O)c1cccnc1)C(=O)N3CC2	> 200	50	5.78	5.74	5.7	5.73	5.63	5.62	5.61
CC(C)(OO)c1ccccc1 [Cumene hydroperoxide]	> 200	200	5.92	5.91	5.94	5.75	5.88	5.75	5.62
CC(C)(OOC(C)(C)c1ccccc1)c1ccccc1 [Dicumyl peroxide’-(Dioxydipropane-2,2-diyl)dibenzene)]	> 200	50	5.83	5.8	5.83	5.82	5.62	5.38	5.45
Oc1ccc(C(c2ccc(O)cc2)C(Cl)(Cl)Cl)cc1 [2,2-Bis(4-hydroxyphenyl)-1,1,1-trichloroethane (HPTE)]	66.9	50	6.16	6.15	6.1	6.01	5.25	4.61	4.12
CC(C)(O)c1cnn2c(-c3ccc(F)c(-c4c(F)cccc4C#N)c3)cnc2n1	> 200	100	5.88	5.79	5.71	5.8	5.82	5.66	5.05
Clc1nc(Cl)nc(Nc2ccccc2Cl)n1 [Anilazine]	> 200	200	6.11	6.01	6.13	6.11	5.99	5.78	5
N=C(N)c1ccc(OCCCCCOc2ccc(C(=N)N)cc2)cc1 [Pentamidine isethionate salt]	149	50	6.04	6.06	6	5.89	5.44	5.05	4.25
C=C(C)[C@H]1Cc2c(ccc3c2O[C@@H]2COc4cc(OC)c(OC)cc4[C@@H]2C3=O)O1 [Rotenone]	181	200	5.16	6.51	6.12	6.26	6.39	6.45	4.07
Oc1ccc(Cl)cc1Cc1ccccc1 [Clorophene]	92	50	5.89	5.87	5.83	5.73	5.15	4.62	3.79
CO/C=C(/C(=O)OC)c1ccccc1Oc1cc(Oc2ccccc2C#N)ncn1 [Azoxystrobin]	> 200	200	5.84	5.87	5.93	5.9	5.8	5.85	5.5
O=c1n(CC2CO2)c(=O)n(CC2CO2)c(=O)n1CC1CO1 (configuration not stated) [Triglycidyl isocyanurate]	> 200	100	5.88	5.83	5.84	5.89	5.86	5.42	5.65
CCOP(=S)(Oc1cnc(C(C)(C)C)nc1)OC(C)C (configuration not stated) [Tebupirimfos]	46.5	50	6	6.01	5.89	5.76	4.5	3.66	3.56
O=[N+]([O-])c1ccc(Cl)c(Cl)c1 [1,2-Dichloro-4-nitrobenzene]	111	100	5.95	5.94	5.93	5.99	5.79	5.66	5.54
O=C(NC(=O)c1c(F)cccc1F)Nc1cc(Cl)c(OC(F)(F)C(F)F)c(Cl)c1 [Hexaflumuron]	> 200	10	5.94	5.96	5.8	5.64	5.5	5.44	4.83
Nc1ccn([C@@H]2O[C@H](CO)[C@@H](O)[C@@H]2O)c(=O)n1 [Cytarabine HCl]	> 200	200	5.96	5.87	5.95	6	5.89	6.03	5.47
N#CSCSc1nc2ccccc2s1 [TCMTB]	34	50	5.93	5.84	5.81	5.78	4.12	3.48	3.4
Nc1ccc(Cl)cc1 [p-Chloroaniline]	58.2	50	5.79	5.76	5.74	5.76	5.28	4.43	4.21
CC1(C)C(C=C(Cl)Cl)C1C(=O)OCc1cccc(Oc2ccccc2)c1 (configuration not stated) [Permethrin]	11.2	10	5.91	5.9	5.67	5.56	5.41	4.98	5.24
CC(C)(C)CC(C)(C)c1ccc(O)c(-n2nc3ccccc3n2)c1 [Octrizole]	> 200	≤ 0.5	5.46	5.58	5.57	5.58	5.58	5.55	5.44
c1ccc2ccccc2c1 [Naphthalene]	> 200	200	5.99	5.93	5.96	5.78	5.87	5.92	4.83

Structure (SMILES)	AC50 for larval growth inhibition [1] [µM]	lowest effective concentration [2] [µM]	mean nematode size ln(EXT) (ln) ([3]; 0.5 µM)	mean nematode size ln(EXT) (ln) ([3]; 1 µM)	mean nematode size ln(EXT) (ln) ([3]; 5 µM)	mean nematode size ln(EXT) (ln) ([3]; 10 µM)	mean nematode size ln(EXT) (ln) ([3]; 50 µM)	mean nematode size ln(EXT) (ln) ([3]; 100 µM)	mean nematode size ln(EXT) (ln) ([3]; 200 µM)
COP(=O)(OC)SCn1c(=O)oc2cc(Cl)cnc21 [Azamethiphos]	> 200	200	6.07	5.94	5.91	5.93	5.88	5.75	5.57
O=C(N[C@@H](c1ccccc1)[C@@H]1CCCCN1)c1cccc(C(F)(F)F)c1Cl	148	10	5.86	5.78	5.75	5.66	5.2	4.58	4.47
Nc1c(Cl)cc([N+](=O)[O-])cc1Cl [Dichloran]	14.4	50	6.01	5.9	5.93	5.73	4.94	4.92	4.96
CC(C)(C)[C@H](O)[C@H](Cc1ccc(Cl)cc1)n1cncn1 (racemic) [Paclobutrazol]	> 200	50	5.57	5.77	5.8	5.97	5.33	5.58	4.63
CC(C)N(Cc1ccccc1)C(=O)C(C)(C)C [Butam]	> 200	200	5.94	5.88	5.91	5.86	5.88	5.86	5.61
Cn1cc(-c2ccccc2)c(=O)c(-c2cccc(C(F)(F)F)c2)c1 [Fluridone]	52	100	6	5.95	5.96	5.88	5.69	4.25	5.6
Cc1oc(-c2ccccc2)nc1CCOc1ccc(C[C@H](Nc2ccccc2C(=O)c2ccccc2)C(=O)O)cc1 [Farglitazar]	39	50	5.87	5.89	5.92	6.19	4.95	4.73	4.48
Oc1ccc2c(c1)-c1ccccc1C2 [3-Hydroxyfluorene]	97.8	50	5.81	5.96	5.84	5.97	5.6	4.66	3.77
O=C(O)C(F)(F)C(F)(F)C(F)(F)C(F)(F)C(F)(F)C(F)(F)C(F)(F)C(F)(F)C(F)(F)F [Perfluorodecanoic acid]	14.6	5	5.85	5.87	5.14	4.6	4.06	3.96	3.16
CCCCCCCCn1sccc1=O [Octhilinone]	34.9	≤ 0.5	5.47	5.54	5.56	5.58	4.2	3.68	3.36
CC1(C)CC/C(=C\c2ccc(Cl)cc2)C1(O)Cn1cncn1 (configuration not stated) [Triticonazole]	120	200	5.82	5.72	6.07	5.84	5.91	5.68	5.25
CC(C1CC1)C(O)(Cn1cncn1)c1ccc(Cl)cc1 (configuration not stated) [Cyproconazole]	> 200	200	5.92	5.92	5.85	5.99	6.17	6.33	5.59
Nc1ccc(Oc2ccc(N)cc2)cc1 [4,4'-Oxydianiline]	> 200	200	5.84	5.87	5.84	5.83	5.54	5.83	5.39
O=C1C2(Cl)C3(Cl)C4(Cl)C(Cl)(Cl)C5(Cl)C3(Cl)C1(Cl)C5(Cl)C24Cl (configuration not stated) [Kepone (Chlordecone)]	3.31	1	5.67	5.53	4.74	4.04	3.69	3.63	4.06
COCCOC[C@H](CC1(C(=O)N[C@H]2CC[C@@H](C(=O)O)CC2)CCCC1)C(=O)Oc1ccc2c(c1)CCC2 [Candoxatril]	> 200	200	5.96	5.83	5.92	5.81	5.91	5.85	5.66
CNC(=O)N(C)c1nnc(C(C)(C)C)s1 [Tebuthiuron]	129	200	5.83	5.93	5.89	5.93	5.95	5.92	5.44
CCCCOC(=O)CCCCCCCCC(=O)OCCCC [Dibutyl sebacate]	27	50	5.85	5.87	5.86	5.68	5.05	5.15	4.79
O=[N+]([O-])C(Br)(CO)CO [Bronopol]	> 200	50	5.88	5.93	5.93	5.84	5.65	5.56	4.95
CCCCCCC(CCCCCCCCCCC(=O)OCC(COC(C)=O)OC(C)=O)OC(C)=O (configuration not stated)	> 200	50	5.48	5.6	5.59	5.69	5.64	5.58	5.53
CCCOC(=O)c1ccc(C(=O)OCCC)nc1 [2,5-Pyridinedicarboxylic acid, dipropyl ester]	> 200	200	5.88	5.95	5.98	5.99	5.93	5.85	5.38
Cc1nn(C)c(Oc2ccccc2)c1C=NOCc1ccc(C(=O)OC(C)(C)C)cc1 [(Z,E)-Fenpyroximate]	< 0.5	≤ 0.5	4.99	4.67	4.2	4.2	4.09	4.05	3.39
